Experiments:
[1] = target: T1, KAT8 (lysine acetyltransferase 8) (Homo sapiens, UniProt Q9H7Z6); test: enzyme kinetics, Km app. for Ac-CoA without inhibitor; type: biochemical; conditions: read-out: Ac-CoA / Km app.
T1 sequence (Q9H7Z6 2-458): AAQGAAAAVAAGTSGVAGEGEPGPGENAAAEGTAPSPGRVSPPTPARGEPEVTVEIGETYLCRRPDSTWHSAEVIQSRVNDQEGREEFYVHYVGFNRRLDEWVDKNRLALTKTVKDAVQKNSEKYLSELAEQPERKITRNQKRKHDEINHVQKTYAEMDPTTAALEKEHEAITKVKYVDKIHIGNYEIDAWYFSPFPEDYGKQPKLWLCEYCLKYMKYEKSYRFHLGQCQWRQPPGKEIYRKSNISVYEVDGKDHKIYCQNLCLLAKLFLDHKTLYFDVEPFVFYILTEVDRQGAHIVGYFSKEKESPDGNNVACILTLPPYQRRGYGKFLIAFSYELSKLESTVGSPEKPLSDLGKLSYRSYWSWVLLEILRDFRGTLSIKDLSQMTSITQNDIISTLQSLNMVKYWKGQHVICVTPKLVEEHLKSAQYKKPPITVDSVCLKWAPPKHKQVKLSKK

[2] = target: T1, KAT8 (lysine acetyltransferase 8); test: enzyme kinetics of KAT8 HAT activity, fluorescent detection of CoASH; type: biochemical

Row | Km [1] [µM] | Ki [2] [µM] | SMILES
1 | 4.1 ± 1.1 |  | CC(=O)SCCNC(=O)CCNC(=O)[C@H](O)C(C)(C)COP(=O)(O)OP(=O)(O)OC[C@H]1O[C@@H](n2cnc3c(N)ncnc32)[C@H](O)[C@@H]1OP(=O)(O)O [Ac-CoA]
2 |  | 39 ± 7.7 | CCCCCCCc1ccc(CCc2cccc(O)c2C(=O)O)cc1 [MG149]

Reference: article PMC5447808 (Pulmonary pharmacology & therapeutics, 2017)
